pEC50, pIC50: −log10 of the molar value.
Experiments:
[1] = system: Ileum; experiment: Relaxtant activity in guinea pig K+-depolarized ileum longitudinal smooth muscle assessed as inhibition of calcium-induced contraction at 10^-4 M relative to control; assay type: functional; details: Cavia porcellus
[2] = system: Ileum; experiment: Relaxtant activity in guinea pig K+-depolarized ileum longitudinal smooth muscle assessed as inhibition of calcium-induced contraction; assay type: functional, tissue-based; details: Cavia porcellus
[3] = system: Left cardiac atrium; experiment: Negative inotropic activity in guinea pig left atria assessed as decrease of 1 Hz current-induced developed tension at 5 X 10^-5 M relative to control; assay type: functional, Cavia porcellus; parameters: scale not given: the % may be the effect or the level left
[4] = system: Aorta; experiment: Vasorelaxant activity in guinea pig K+-depolarized aortic strip assessed as inhibition of calcium-induced contraction at 10^-4 M relative to control; assay type: functional; details: Cavia porcellus
[5] = system: Left cardiac atrium; experiment: Negative inotropic activity in guinea pig left atria assessed as decrease of 1 Hz current-induced developed tension; assay type: functional; details: Cavia porcellus
[6] = Negative chronotropic activity in guinea pig spontaneously beating right atria assessed as decrease in atrial rate at 10^-5 M relative to control; assay type: functional, Cavia porcellus, Cardiac atrium; parameters: scale not given: the % may be the effect or the level left
[7] = system: Heart; experiment: Antiarrhythmic activity in guinea pig left atria assessed as increase of threshold of 1 Hz alternating current-induced arrhythmia at 10^-4 M measured every 30 mins relative to control; assay type: functional, Cavia porcellus
[8] = Elimination half life in human; details: in vivo
[9] = system: Heart; experiment: Antiarrhythmic activity in guinea pig left atria assessed as increase of threshold of 1 Hz alternating current-induced arrhythmia at 1 Hz measured every 30 mins; assay type: functional, tissue-based; details: Cavia porcellus, 0.5 h
[10] = system: Left cardiac atrium; experiment: Negative inotropic activity in guinea pig left atria assessed as decrease of 1 Hz current-induced developed tension at 10^-6 M relative to control; assay type: functional, Cavia porcellus; parameters: scale not given: the % may be the effect or the level left
[11] = system: Heart; experiment: Antiarrhythmic activity in guinea pig left atria assessed as increase of threshold of 1 Hz alternating current-induced arrhythmia at 10^-6 M measured every 30 mins relative to control; assay type: functional, Cavia porcellus
[12] = system: Aorta; experiment: Vasorelaxant activity in guinea pig K+-depolarized aortic strip assessed as inhibition of calcium-induced contraction at 5 X 10^-5 M relative to control; assay type: functional; details: Cavia porcellus

Row | SMILES | inhibition at 100 µM [1] [%] | pIC50 [2] | Activity [3] [%] | inhibition at 100 µM [4] [%] | pEC50 [5] | Activity [6] [%] | %max [7] [%] | half-life [8] [min] | pEC50 [9] | Activity [10] [%] | %max [11] [%] | inhibition at 50 µM [12] [%]
1 | Cc1ccc(O)c(C)c1OCC(C)N (racemic) | 51 | 4.59 | – | – | – | – | – | – | – | – | – | –
2 | Cc1ccc(O)c(C)c1OC[C@H](C)N | 75 | 4.87 | 93 | 4 | 6.92 | 16 | 13 | – | – | – | – | –
3 | Cc1cccc(C)c1OCC(C)N (centres undefined) [MEXILETINE] | 81 | 5.07 | – | – | – | – | – | 600 | – | – | – | –
4 | Cc1ccc(O)c(C)c1OC[C@@H](C)N | 47 | – | – | – | 7.60 | 34 | – | – | 6.25 | 89 | 66 | 1
